Article PMC6116579, “Catalytic and Structural Characterization of a Browning-Related Protein in Oriental Sweet Melon (Cucumis Melo var. Makuwa Makino)” (Frontiers in Chemistry, 2018)

Target: T1, BRP (browning-related protein with PPO activity; matched to endochitinase MCHT-2) (Cucumis melo, UniProt Q9AVA8)
T1 construct: native, partially purified from fruit (ammonium sulfate, DEAE Sepharose, Sephacryl S200); about 18 kDa SDS-PAGE, 37 kDa native PAGE, homodimer
T1 sequence (Q9AVA8 21-311): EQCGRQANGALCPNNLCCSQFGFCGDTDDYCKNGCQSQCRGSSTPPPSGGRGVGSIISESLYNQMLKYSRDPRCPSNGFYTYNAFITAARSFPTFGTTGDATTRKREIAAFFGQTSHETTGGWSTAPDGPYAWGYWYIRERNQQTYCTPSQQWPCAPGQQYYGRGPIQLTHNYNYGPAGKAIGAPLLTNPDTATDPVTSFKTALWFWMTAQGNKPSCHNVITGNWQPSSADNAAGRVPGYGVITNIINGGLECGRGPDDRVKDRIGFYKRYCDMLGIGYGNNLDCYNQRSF
Assay: absorbance at […] nm, Lineweaver-Burk
Type: biochemical
Settings: oxidation by air oxygen; 0.05 M Tris-HCl pH 7.0, 25 °C

Molecule `Oc1cccc(O)c1O` [Pyrogallol] has a Km of 42.8 mM.
